Reference: patent US20260184693A1, “INHIBITORS OF SOLUTE CARRIER FAMILY 6A MEMBER 19 (SLC6A19) AND METHODS OF USE THEREOF” (Maze Therapeutics, Inc., priority 2022, published 2026)

Target: T1, human SLC6A19 (Homo sapiens, UniProt Q695T7)
T1 construct: expressed in transfected cells
T1 sequence (Q695T7 1-634): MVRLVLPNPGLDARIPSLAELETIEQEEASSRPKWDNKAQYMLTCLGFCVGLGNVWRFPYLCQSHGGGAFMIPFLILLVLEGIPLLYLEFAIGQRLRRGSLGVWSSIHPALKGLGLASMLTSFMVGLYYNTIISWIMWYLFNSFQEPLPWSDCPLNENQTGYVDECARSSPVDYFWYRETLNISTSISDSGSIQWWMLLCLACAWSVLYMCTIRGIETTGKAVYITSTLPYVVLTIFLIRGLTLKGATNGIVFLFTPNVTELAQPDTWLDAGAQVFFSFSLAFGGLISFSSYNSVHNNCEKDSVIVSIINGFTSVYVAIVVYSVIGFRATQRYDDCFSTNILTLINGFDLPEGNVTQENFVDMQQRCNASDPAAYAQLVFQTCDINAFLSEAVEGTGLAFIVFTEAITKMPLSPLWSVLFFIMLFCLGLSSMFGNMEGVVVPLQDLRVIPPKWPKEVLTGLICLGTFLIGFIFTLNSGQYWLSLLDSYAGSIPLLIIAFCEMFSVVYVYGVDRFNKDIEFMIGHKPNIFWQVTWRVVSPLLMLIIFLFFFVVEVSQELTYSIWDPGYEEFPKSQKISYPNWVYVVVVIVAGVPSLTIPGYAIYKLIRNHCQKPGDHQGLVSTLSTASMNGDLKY
T1 sequence (Q9HBJ8 15-222 partner): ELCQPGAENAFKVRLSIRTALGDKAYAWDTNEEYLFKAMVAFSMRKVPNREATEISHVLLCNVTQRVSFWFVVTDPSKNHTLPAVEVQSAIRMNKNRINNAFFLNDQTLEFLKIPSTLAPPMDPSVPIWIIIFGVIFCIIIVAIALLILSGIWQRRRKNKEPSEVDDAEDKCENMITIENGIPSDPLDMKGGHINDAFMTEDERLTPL
Assay: Example B2: 13C6,15N-isoleucine uptake, RapidFire mass spectrometry, in CHO cells with doxycycline-inducible expression of human SLC6A19 and TMEM27
Type: cell-based
Details: read-out: SLC6A19_RapidFire Uptake Assay IC50
Protocol: Assay ready vials of CHO cells with doxycycline inducible expression of human SLC6A19 and TMEM27 were thawed, plated in T175 flasks containing DMEM/F12 media, 10% FBS, 100 Penicillin-Streptomycin, 1× UltraGlutamate, 1 mM Sodium Pyruvate, Sodium Bicarbonate (7.5 mL of 7.5% solution in 500 mL media final), […] Blasticidin, 150 µg/mL Hygromycin B Gold, and 500 µg/mL G418, and incubated (humidified, 37° C. with […]) for 48 hours. Media was then removed, flasks were washed with 20 mL of DPBS, and 5 mL of TryμLE™ Express was added to each flask to initiate cell dissociation. After 5 minutes, 10 mL of cell culture media was added to each flask and mixed. The cell suspension was collected and centrifuged for 5 minutes at 200×g. The supernatant was removed, and the pellet was resuspended in 10 mL of cell culture media. Resuspended cells were counted using a Vi-Cell. 30 μL/well (20,000 cells/well) of cell suspension was added to Poly-D-Lysine 384-well black/clear plates. Plates were incubated (humidified, 37° C. with 5% CO2) for 24 hours. To induce expression of human SLC6A19 and TMEM27, 10 μL of assay culture media containing 4 μg/mL doxycycline was added to each well. Assay plates were then incubated (humidified, 37° C. with 5% CO2) overnight. After incubation, the media was removed, and wells were washed 3 times with 40 μL of warmed DPBS. […] All compounds were plated in a duplicate 10-point dilution series that consisted of 2-fold dilutions. The plates were incubated (humidified, 37° C. with 5% CO2) with compound for 20 minutes. Afterwards, 20 μL/well of 2 mM 13C6,15N-1-isoleucine was added to each well and plates were incubated again (humidified, 37° C. with 5% CO2) for another 20 minutes. Assay buffer was then removed, and plates were washed. 70 μL/well of stop solution (75% acetonitrile, 25% HPLC grade water, 250 nM 1-leucine-1-13 C (RapidFire standard)) was added to each well. The plates were sealed and then placed in a −20° C. freezer for 20 minutes. The plates were thawed at room temperature for 20 minutes and then centrifuge for 20 minutes at 3000 rpm. Using an ABSciex API4000 mass spectrometer, processed samples were loaded onto the graphitic carbon SPE-column. The time for aspiration, load/wash, elution and re-equilibration time was 600, 1500, 3000 and 500 milliseconds, respectively. Peak areas were calculated using RapidFire Integrator software.

IC50 [µM] | SMILES
0.366 | CN(C(=O)NCc1cc2cc(Cl)ccc2[nH]1)[C@@H]1CCCN(C(=O)c2ccccc2)C1 [Compound 52, (R)-1-(1-benzoylpiperidin-3-yl)-3-((5-chloro-1H-indol-2-yl)methyl)-1-methylurea]
1.63 | CC(=O)NCC(=O)N1CCC[C@@H](N(C)C(=O)NCc2cc3cc(Cl)ccc3[nH]2)C1 [Compound 53, (R)-N-(2-(3-(3-((5-chloro-1H-indol-2-yl)methyl)-1-methylureido)piperidin-1-yl)-2-oxoethyl)acetamide]
0.401 | CN(C(=O)NCc1cc2cc(Cl)ccc2[nH]1)[C@@H]1CCCN(C(=O)c2ccn(C)n2)C1 [Compound 54, (R)-3-((5-chloro-1H-indol-2-yl)methyl)-1-methyl-1-(1-(1-methyl-1H-pyrazole-3-carbonyl)piperidin-3-yl)urea]
0.571 | CN(C(=O)NCc1cc2cc(Cl)ccc2[nH]1)[C@@H]1CCCN(C(=O)c2cnn(C)c2)C1 [Compound 55, (R)-3-((5-chloro-1H-indol-2-yl)methyl)-1-methyl-1-(1-(1-methyl-1H-pyrazole-4-carbonyl)piperidin-3-yl)urea]
2.46 | CN(C(=O)NCc1cc2cc(Cl)ccc2[nH]1)[C@@H]1CCCN(C(=O)CNC(=O)C(F)(F)F)C1 [Compound 56, (R)-N-(2-(3-(3-((5-chloro-1H-indol-2-yl)methyl)-1-methylureido)piperidin-1-yl)-2-oxoethyl)-2,2,2-trifluoroacetamide]
8.64 | CN(C(=O)NCc1cc2cc(Cl)ccc2[nH]1)[C@@H]1CCCN(C(=O)C2(C(F)(F)F)CC2)C1 [Compound 57, (R)-3-((5-chloro-1H-indol-2-yl)methyl)-1-methyl-1-(1-(1-(trifluoromethyl)cyclopropane-1-carbonyl)piperidin-3-yl)urea]
4.05 | Cc1[nH]cnc1C(=O)N1CCC[C@@H](N(C)C(=O)NCc2cc3cc(Cl)ccc3[nH]2)C1 [Compound 58, (R)-3-((5-chloro-1H-indol-2-yl)methyl)-1-methyl-1-(1-(5-methyl-1H-imidazole-4-carbonyl)piperidin-3-yl)urea]
0.529 | CN(C(=O)NCc1cc2cc(Cl)ccc2[nH]1)[C@@H]1CCCN(C(=O)Cc2ccn[nH]2)C1 [Compound 59, (R)-1-(1-(2-(1H-pyrazol-5-yl)acetyl)piperidin-3-yl)-3-((5-chloro-1H-indol-2-yl)methyl)-1-methylurea]
7.78 | CN(C(=O)NCc1cc2cc(Cl)ccc2[nH]1)[C@@H]1CCCN(C(=O)C2CCC(=O)N2)C1 (stereo partly drawn) [Compound 60, 3-((5-chloro-1H-indol-2-yl)methyl)-1-methyl-1-((3R)-1-(5-oxopyrrolidine-2-carbonyl)piperidin-3-yl)urea]
0.542 | CN(C(=O)NCc1cc2cc(Cl)ccc2[nH]1)[C@@H]1CCCN(C(=O)C2CCCO2)C1 (stereo partly drawn) [Compound 61, 3-((5-chloro-1H-indol-2-yl)methyl)-1-methyl-1-((3R)-1-(tetrahydrofuran-2-carbonyl)piperidin-3-yl)urea]
1.35 | CN(C(=O)NCc1cc2cc(Cl)ccc2[nH]1)[C@@H]1CCCN(C(=O)Cc2cnccn2)C1 [Compound 62, (R)-3-((5-chloro-1H-indol-2-yl)methyl)-1-methyl-1-(1-(2-(pyrazin-2-yl)acetyl)piperidin-3-yl)urea]
0.935 | CN(C(=O)NCc1cc2cc(Cl)ccc2[nH]1)[C@@H]1CCCN(C(=O)c2ccc(O)cc2F)C1 [Compound 63, (R)-3-((5-chloro-1H-indol-2-yl)methyl)-1-(1-(2-fluoro-4-hydroxybenzoyl)piperidin-3-yl)-1-methylurea]
0.651 | CN(C(=O)NCc1cc2cc(Cl)ccc2[nH]1)[C@@H]1CCCN(C(=O)[C@H]2C[C@H](O)C2)C1 [Compound 64, trans-(R)-3-((5-chloro-1H-indol-2-yl)methyl)-1-(1-(3-hydroxycyclobutane-1-carbonyl)piperidin-3-yl)-1-methylurea]
0.973 | Cc1noc(CC(=O)N2CCC[C@@H](N(C)C(=O)NCc3cc4cc(Cl)ccc4[nH]3)C2)n1 [Compound 65, (R)-3-((5-chloro-1H-indol-2-yl)methyl)-1-methyl-1-(1-(2-(3-methyl-1,2,4-oxadiazol-5-yl)acetyl)piperidin-3-yl)urea]
4.24 | CN(C(=O)NCc1cc2cc(Cl)ccc2[nH]1)[C@@H]1CCCN(C(=O)Cn2cccnc2=O)C1 [Compound 66, (R)-3-((5-chloro-1H-indol-2-yl)methyl)-1-methyl-1-(1-(2-(2-oxopyrimidin-1(2H)-yl)acetyl)piperidin-3-yl)urea]
0.887 | CN(C(=O)NCc1cc2cc(Cl)ccc2[nH]1)[C@@H]1CCCN(C(=O)Cc2cccnc2)C1 [Compound 67, (R)-3-((5-chloro-1H-indol-2-yl)methyl)-1-methyl-1-(1-(2-(pyridin-3-yl)acetyl)piperidin-3-yl)urea]
0.417 | CN(C(=O)NCc1cc2cc(Cl)ccc2[nH]1)[C@@H]1CCCN(C(=O)Cc2ccccn2)C1 [Compound 68, (R)-3-((5-chloro-1H-indol-2-yl)methyl)-1-methyl-1-(1-(2-(pyridin-2-yl)acetyl)piperidin-3-yl)urea]
> 2.81 | CN(C(=O)NCc1cc2cc(Cl)ccc2[nH]1)[C@@H]1CCCN(C(=O)c2onc3ccccc23)C1 [Compound 69, (R)-1-(1-(benzo[c]isoxazole-3-carbonyl)piperidin-3-yl)-3-((5-chloro-1H-indol-2-yl)methyl)-1-methylurea]
3.06 | CC(C(=O)N1CCC[C@@H](N(C)C(=O)NCc2cc3cc(Cl)ccc3[nH]2)C1)n1cncn1 (stereo partly drawn) [Compound 70, 1-((3R)-1-(2-(1H-1,2,4-triazol-1-yl)propanoyl)piperidin-3-yl)-3-((5-chloro-1H-indol-2-yl)methyl)-1-methylurea]
6.39 | CCS(=O)(=O)CC(=O)N1CCC[C@@H](N(C)C(=O)NCc2cc3cc(Cl)ccc3[nH]2)C1 [Compound 71, (R)-3-((5-chloro-1H-indol-2-yl)methyl)-1-(1-(2-(ethylsulfonyl)acetyl)piperidin-3-yl)-1-methylurea]
1.37 | CN(C(=O)NCc1cc2cc(Cl)ccc2[nH]1)[C@@H]1CCCN(C(=O)c2ccc3ocnc3c2)C1 [Compound 72, (R)-1-(1-(benzo[d]oxazole-5-carbonyl)piperidin-3-yl)-3-((5-chloro-1H-indol-2-yl)methyl)-1-methylurea]
0.897 | CN(C(=O)NCc1cc2cc(Cl)ccc2[nH]1)[C@@H]1CCCN(C(=O)CCNC(N)=O)C1 [Compound 73, (R)-3-((5-chloro-1H-indol-2-yl)methyl)-1-methyl-1-(1-(3-ureidopropanoyl)piperidin-3-yl)urea]
2.54 | CN(C(=O)NCc1cc2cc(Cl)ccc2[nH]1)[C@@H]1CCCN(C(=O)c2cccn3cnnc23)C1 [Compound 74, (R)-1-(1-([1,2,4]triazolo[4,3-a]pyridine-8-carbonyl)piperidin-3-yl)-3-((5-chloro-1H-indol-2-yl)methyl)-1-methylurea]
1.75 | CN(C(=O)NCc1cc2cc(Cl)ccc2[nH]1)[C@@H]1CCCN(C(=O)C2CCC(=O)C2)C1 (stereo partly drawn) [Compound 75, 3-((5-chloro-1H-indol-2-yl)methyl)-1-methyl-1-((3R)-1-(3-oxocyclopentane-1-carbonyl)piperidin-3-yl)urea]
